Results on 52 compounds are retold here after patent US20260193236A1 (Protego Biopharma, Inc., priority 2022, published 2026).

The subject of one experiment is IRE1-XBP1s (XBP1-RLuc splicing reporter in HEK293 T-REx cells). Briefly: IRE1-XBP1s activation assay (XBP1-RLuc splicing reporter, HEK293 T-REx cells, luminescence relative to thapsigargin). Format: cell-based. Conditions: 18 h, compound 10 μM, HEK293 T-REx XBP1-RLuc reporter cells, relative to thapsigargin (Tg) 500 nM, read-out: Activity (IRE1-XBP1s activation, luminescence as % signal relative to thapsigargin, % Tg). As for the experimental part:
IRE1-XBP1s activation Assay: HEK293 T-REx cells stably expressing the XBP1-RLuc splicing reporter were treated with an IRE1-XBP1s activator provided herein (10 μM) in the presence or absence of the IRE1 active site inhibitor 4μ8C (32 μM) for 18 h. Luminescence was shown as the percentage signal relative to thapsigargin (Tg) (500 nM, 18 h).
Turning to `Cc1ccc(OCCN(C)C(=O)Cn2cc(NC(=O)CCOc3ccc(F)cc3C(C)C)cn2)cc1` [Compound 66], the activation at 10 µM was greater than 50%.

Turning to `Cc1ccc(OCCN(C)C(=O)Cn2cc(NC(=O)CCOc3cccc(CO)c3)cn2)cc1` [Compound 61], the activation at 10 µM is greater than 50%.

Regarding `Cc1ccc(OCCN(C)C(=O)Cn2cc(N(C)C(=O)CCOc3ccccc3F)cn2)cc1` [Compound 51], the activation at 10 µM is less than 30%.

On to `Cc1ccc2nc(OCCN(C)C(=O)Cn3cc(NC(=O)CCNc4ccc(F)nc4C)cn3)sc2c1` [Compound 239], for which the activation at 10 µM is less than 30%.

As for `Cc1ccc(OCCN(C)C(=O)Cn2cc(NC(=O)COc3ccc4ccccc4n3)cn2)cc1` [Compound 288], the activation at 10 µM is less than 30%.

For the compound `Cc1ccc(OCCN(C)C(=O)Cn2cc(NC(=O)CCCc3ccccc3)cn2)cc1` [Compound 92, N-(1-(2-(methyl(2-(p-tolyloxy)ethyl)amino)-2-oxoethyl)-1H-pyrazol-4-yl)-4-phenylbutanamide], the activation at 10 µM is less than 30%.

Regarding `CN(CCOc1ccc(C(F)(F)F)cn1)C(=O)Cn1cc(NC(=O)CCNc2c(F)cncc2Cl)cn1` [Compound 213], the activation at 10 µM is greater than 50%.

For the compound `Cc1ccc(OCCN(C)C(=O)Cn2cc(NC(=O)CCOc3ccc(F)cc3C)c(C)n2)cc1` [Compound 65], the activation at 10 µM is less than 30%.

As for `CN(CCOc1ccc(C(F)(F)F)cn1)C(=O)Cn1cc(NC(=O)CCNc2ccnc(F)n2)cn1` [Compound 267], the activation at 10 µM lay in the range of 30 to 50%.

With `Cc1ccc(OCCN(C)C(=O)Cn2cc(NC(=O)CCNc3cc(C)cnc3F)cn2)cc1` [Compound 194], the activation at 10 µM is less than 30%.

For `Cc1ccc(OCCN(C)C(=O)Cn2cc(NC(=O)C3(CNc4ccc(F)nc4C)CC3)cn2)cc1` [Compound 293, 1-(((6-fluoro-2-methylpyridin-3-yl)amino)methyl)-N-(1-(2-(methyl (2-(p-tolyloxy)ethyl)amino)-2-oxoethyl)-1H-pyrazol-4-yl)cyclopropane-1-carboxamide], the activation at 10 µM was less than 30%.

`Cc1ccc(OCCC(=O)Nc2cnn(CC(=O)N(C)CCOc3ncc(F)cc3F)c2)c(F)c1` [Compound 80]: the activation at 10 µM was less than 30%.

As for `[2H]C([2H])([2H])c1ccc(OCCN(C)C(=O)Cn2cc(NC(=O)CCOc3ccc(C)cc3F)cn2)cc1` [Compound 91], the activation at 10 µM lay in the range of 30 to 50%.

On to `Cc1ccc(OCCN(C)C(=O)Cn2cc(NC(=O)CCOc3cccc(N)n3)cn2)cc1` [Compound 103], for which the activation at 10 µM is greater than 50%.

With `Cc1ccc(OCCN(C)C(=O)Cn2cc(NC(=O)CCOc3cccnc3)cn2)cc1` [Compound 6, N-(1-(2-(methyl(2-(p-tolyloxy)ethyl)amino)-2-oxoethyl)-1H-pyrazol-4-yl)-3-(pyridin-3-yloxy)propanamide], the activation at 10 µM was greater than 50%.

Take `Cc1ccc(OCC(C)N(C)C(=O)Cn2cc(NC(=O)CCOc3ccccc3F)cn2)cc1` (stereo not shown) [Compound 53]: the activation at 10 µM was greater than 50%.

On to `Cc1ccc(OCCN(C)C(=O)Cn2cc(NC(=O)CCNc3ccncc3Cl)cn2)cc1` [Compound 182], for which the activation at 10 µM is greater than 50%.

With `Cc1ccc(OCCN(C)C(=O)Cn2cc(NC(=O)CCNc3ccc(O)nc3)cn2)cc1` [Compound 255], the activation at 10 µM is less than 30%.

Regarding `COc1ccnc(NCCC(=O)Nc2cnn(CC(=O)N(C)CCOc3ccc(C)cc3)c2)c1` [Compound 175], the activation at 10 µM was 30 to 50%.

Consider `Cc1ccc(OCCN(C)C(=O)Cn2cc(NC(=O)CNC(=O)c3ccncc3)cn2)cc1` [Compound 259], for which the activation at 10 µM was less than 30%.

For `Cc1ccc(OCCN(C)C(=O)Cn2cc(NC(=O)CCOc3ccncc3[N+](=O)[O-])cn2)cc1` [Compound 111], the activation at 10 µM is less than 30%.

Regarding `Cc1ccc(OCCN(C)C(=O)Cn2cc(NC(=O)[C@@H](CNc3ccc(F)nc3C)C(C)C)cn2)cc1` [Compound 171], the activation at 10 µM is 30 to 50%.

As to `Cc1ccc(OCCN(C)C(=O)Cn2cc(NC(=O)CCNc3c(F)cncc3C=O)cn2)cc1` [Compound 230, 3-((3-fluoro-5-formylpyridin-4-yl)amino)-N-(1-(2-(methyl(2-(p-tolyloxy)ethyl)amino)-2-oxoethyl)-1H-pyrazol-4-yl)propanamide], the activation at 10 µM was greater than 50%.

Regarding `Cc1ccc(OCCN(C)C(=O)Cn2cc(NC(=O)CCNc3ncc(F)cc3C)cn2)cc1` [Compound 206], the activation at 10 µM was greater than 50%.

In the case of `Cc1ccc(OCCN(C)C(=O)Cn2cc(NC(=O)CCNc3nc(C)ncc3C(C)C)cn2)cc1` [Compound 210], the activation at 10 µM was greater than 50%.

With `Cc1ccc(OCCN(C)C(=O)Cn2cc(NC(=O)CCNc3cccc(C#N)n3)cn2)cc1` [Compound 132], the activation at 10 µM was greater than 50%.

For the compound `COC(=O)Nc1cccc(OCCC(=O)Nc2cnn(CC(=O)N(C)CCOc3ccc(C)cc3)c2)n1` [Compound 261, methyl (6-(3-((1-(2-(methyl(2-(p-tolyloxy)ethyl)amino)-2-oxoethyl)-1H-pyrazol-4-yl)amino)-3-oxopropoxy)pyridin-2-yl)carbamate], the activation at 10 µM lay in the range of 30 to 50%.

Turning to `Cc1ccc(OCCN(C)C(=O)Cn2cc(NC(=O)CCNc3cnc(F)c(C)c3)cn2)cc1` [Compound 121], the activation at 10 µM is greater than 50%.

Consider `CN(CCOc1cc(C(F)F)on1)C(=O)Cn1cc(NC(=O)CCNc2ccnc(F)n2)cn1` [Compound 272], for which the activation at 10 µM was less than 30%.

Regarding `Cc1ccc(OCCN(C)C(=O)Cn2cc(NC(=O)CCNc3cccnc3C(F)(F)F)cn2)cc1` [Compound 186], the activation at 10 µM was greater than 50%.

For `COc1ccc(OCCN(C)C(=O)Cn2cc(NC(=O)CCNc3cc(C)ncc3C)cn2)cc1` [Compound 168], the activation at 10 µM was 30 to 50%.

As for `Cc1ccc(OCCN(C)C(=O)Cn2cc(NC(=O)CCNc3cnc4c(c3)OCO4)cn2)cc1` [Compound 295, 3-([1, 3]dioxolo[4,5-b]pyridin-6-ylamino)-N-(1-(2-(methyl (2-(p-tolyloxy)ethyl)amino)-2-oxoethyl)-1H-pyrazol-4-yl)propanamide], the activation at 10 µM is greater than 50%.

In the case of `Cc1ccc(OCCN(C)C(=O)Cn2cc(NC(=O)CC(C)(C)Nc3ccnc(F)n3)cn2)cc1` [Compound 217, 3-((2-fluoropyrimidin-4-yl)amino)-3-methyl-N-(1-(2-(methyl(2-(p-tolyloxy)ethyl)amino)-2-oxoethyl)-1H-pyrazol-4-yl)butanamide], the activation at 10 µM is less than 30%.

On to `Cc1ccc(OCCN(C)C(=O)Cn2cc(NC(=O)CCOc3c(C)cc(F)cc3C)cn2)cc1` [Compound 58], for which the activation at 10 µM was in the range of 30 to 50%.

On to `COc1cc(NS(=O)(=O)CC(=O)Nc2cnn(CC(=O)N(C)CCOc3ccc(C)cc3)c2)ccn1` [Compound 285, 2-(4-(2-(N-(2-methoxypyridin-4-yl)sulfamoyl)acetamido)-1H-pyrazol-1-yl)-N-methyl-N-(2-(p-tolyloxy)ethyl)acetamide], for which the activation at 10 µM is less than 30%.

In the case of `Cc1ncccc1NCCC(=O)Nc1cnn(CC(=O)N(C)CCOc2ccc(C(F)(F)F)cc2)c1` [Compound 204], the activation at 10 µM is less than 30%.

As to `Cc1ccc(OCCC(=O)Nc2cnn(CC(=O)N(C)CCOc3ccc(C4(F)CC4)cc3)c2)c(F)c1` [Compound 89], the activation at 10 µM was less than 30%.

For the compound `COc1cc(F)ccc1OCCN(C)C(=O)Cn1cc(NC(=O)CCNc2ncccn2)cn1` [Compound 282, N-(1-(2-((2-(4-fluoro-2-methoxyphenoxy)ethyl)(methyl)amino)-2-oxoethyl)-1H-pyrazol-4-yl)-3-(pyrimidin-2-ylamino)propanamide], the activation at 10 µM is less than 30%.

In the case of `Cc1ccc(OCCN(C)C(=O)Cn2cc(NC(=O)C(CNc3ccc(F)nc3C)c3ccccc3)cn2)cc1` (stereo not shown) [Compound 167], the activation at 10 µM is less than 30%.

As to `Cc1ccc(OCCN(C)C(=O)Cn2cc(NC(=O)/C=C/Oc3c(Cl)ccnc3C)cn2)cc1` [Compound 115], the activation at 10 µM is less than 30%.

Consider `C=C(C)c1cccc(OCCC(=O)Nc2cnn(CC(=O)N(C)CCOc3ccc(C)cc3)c2)n1` [Compound 107], for which the activation at 10 µM is less than 30%.

For the compound `Cc1ccc(OCCN(C)C(=O)Cn2cc(NC(=O)CCOc3ccc(F)cc3F)cn2)cc1` [Compound 49], the activation at 10 µM was greater than 50%.

Turning to `CN(CCOc1ccc(Cl)nc1)C(=O)Cn1cc(NC(=O)CCOc2ccccc2F)cn1` [Compound 45], the activation at 10 µM fell in the range of 30 to 50%.

In the case of `Cc1ccc(OCCC(=O)Nc2cnn(CC(=O)N(C)CCOc3ccc(F)c(Cl)c3)c2)c(F)c1` [Compound 72], the activation at 10 µM is less than 30%.

As to `Cc1ccc(OCCN(C)C(=O)Cn2cc(NC(=O)CCNc3cccnc3F)cn2)cc1` [Compound 189], the activation at 10 µM was less than 30%.

Regarding `Cc1ccc(OCCN(C)C(=O)Cn2cc(NC(=O)CCNc3ncc(C)cc3C)cn2)cc1` [Compound 195], the activation at 10 µM is less than 30%.

With `CC(C)c1cncc(F)c1OCCC(=O)Nc1cnn(CC(=O)N(C)CCOc2cnc(C(F)(F)F)cn2)c1` [Compound 278], the activation at 10 µM was greater than 50%.

For the compound `Cc1ccc(OCCN(C)C(=O)Cn2cc(NC(=O)CCNc3cc(Cl)nc4nccn34)cn2)cc1` [Compound 226], the activation at 10 µM is less than 30%.

Regarding `Cc1ccc(OCCN(C)C(=O)Cn2cc(NC(=O)CCOc3cccc(NC(=O)OC(C)(C)C)n3)cn2)cc1` [Compound 102], the activation at 10 µM is greater than 50%.

As to `CN(CCOc1cccnc1)C(=O)Cn1cc(NC(=O)CCOc2ccccc2F)cn1` [Compound 41], the activation at 10 µM is less than 30%.

Still in this experiment, the particulars now being: 18 h, read-out: Activity (IRE1-XBP1s activation, luminescence as % signal relative to thapsigargin, % Tg).
For `Cc1ccc(OCCN(C)C(=O)Cn2cc(NC(=O)CCOc3ccc(C#N)cc3)cn2)cc1` [Compound 20, 3-(4-cyanophenoxy)-N-(1-(2-(methyl(2-(p-tolyloxy)ethyl)amino)-2-oxoethyl)-1H-pyrazol-4-yl)propanamide], the activation at 10 µM was less than 30%.

On to `Cc1ccc(OCC(C)(C)N(C)C(=O)Cn2cc(NC(=O)CCOc3ccccc3F)cn2)cc1` [Compound 63], for which the activation at 10 µM is greater than 50%.
